Data reported in patent US9113629B2, “4-amino-6-(4-substituted-phenyl)-picolinates and 6-amino-2-(4-substituted-phenyl)-pyrimidine-4-carboxylates and their use as herbicides” (DOW AGROSCIENCES LLC, priority 2013, dated 2015).
Read-outs that look alike come from different tables or passages of the source.

Columns and labels:
[1] = test system: Key Grass and Sedge Weeds as well as Grass Crops; assay: Post-emergent Test II herbicidal activity (Table 6); assay type: in vivo; details: post-emergence, 336 h; for pest or weed control at 70 g/ha: application rate 70 g ai/ha; for pest or weed control at 140 g/ha: application rate 140 g ai/ha
Procedure: (§1) Post-emergent Test II: Seeds or nutlets of the desired test plant species were planted in Sun Gro Metro-Mix® 360 planting mixture, which typically has a pH of 6.0 to 6.8 and an organic matter content of about 30 percent, in plastic pots with a surface area of 64 square centimeters. When required to ensure good germination and healthy plants, a fungicide treatment and/or other chemical or physical treatment was applied. The plants were grown for 7-21 d in a greenhouse with an approximate 15 h photoperiod which was maintained at about 23-29° C. during the day and 22-28° C. during the night. Nutrients and water were added on a regular basis and supplemental lighting was provided with overhead metal halide 1000-Watt lamps as necessary. The plants were employed for testing when they reached the first or second true leaf stage.
(§2) A weighed amount, determined by the highest rate to be tested, of each test compound was placed in a 25 mL glass vial and was dissolved in 4 mL of a 97:3 v/v mixture of acetone and DMSO to obtain concentrated stock solutions. […] The concentrated stock solutions obtained were diluted with 20 mL of an aqueous mixture containing acetone, water, isopropyl alcohol, DMSO. Atplus 411F crop oil concentrate, and Triton® X-155 surfactant in a 48.5:39:10:1.5:1.0:0.02 v/v ratio to obtain spray solutions containing the highest application rates. Additional application rates were obtained by serial dilution of 12 mL of the high rate solution into a solution containing 2 mL of 97:3 v/v mixture of acetone and DMSO and 10 mL of an aqueous mixture containing acetone, water, isopropyl alcohol, DMSO, Atplus 411F crop oil concentrate, and Triton X-155 surfactant in a 48.5:39:10:1.5:1.0:0.02 v/v ratio to obtain ½×, ¼×, ⅛× and 1/16× rates of the high rate. Compound requirements are based upon a 12 mL application volume at a rate of 187 liters per hectare (L/ha). Formulated compounds were applied to the plant material with an overhead Mandel track sprayer equipped with 8002E nozzles calibrated to deliver 187 L/ha over an application area of 0.503 square meters at a spray height of 18 inches (43 cm) above the average plant canopy height. Control plants were sprayed in the same manner with the solvent blank.
(§3) The treated plants and control plants were placed in a greenhouse as described above and watered by subirrigation to prevent wash-off of the test compounds. After 14 d, the condition of the test plants as compared with that of the untreated plants was determined visually and scored on a scale of 0 to 100 percent where 0 corresponds to no injury and 100 corresponds to complete kill.

[2] = test system: Key Broadleaf Weed and Crop Species; assay: Post-emergent Test II herbicidal activity (Table 5); assay type: in vivo; details: post-emergence, 336 h, 14 days after application
Procedure: as §1, §2, §3

[3] = Triticum aestivum, TRZSS (wheat), read-out: Visual Growth Reduction (%) 14 Days After Application, TRZSS
[4] = CYPES: yellow nutsedge (Cyperus esculentus), read-out: Visual Growth Reduction (%) 14 Days After Application, CYPES
[5] = DIGSA: crabgrass (Digitaria sanguinalis), read-out: Visual Growth Reduction (%) 14 Days After Application, DIGSA
[6] = ORYSA: rice (Oryza sativa), read-out: Visual Growth Reduction (%) 14 Days After Application, ORYSA
[7] = SETFA: giant foxtail (Setaria faberi), read-out: Visual Growth Reduction (%) 14 Days After Application, SETFA
[8] = SORVU: grain sorghum (Sorghum vulgare), read-out: Visual Growth Reduction (%) 14 Days After Application, SORVU
[9] = ZEAMX: maize, corn (Zea mays), read-out: Visual Growth Reduction (%) 14 Days After Application, ZEAMX

SMILES	pest or weed control at 70 g/ha [1, 3]	pest or weed control at 140 g/ha [1, 3]	pest or weed control at 70 g/ha [1, 4]	pest or weed control at 140 g/ha [1, 4]	pest or weed control at 70 g/ha [1, 5]	pest or weed control at 140 g/ha [1, 5]	pest or weed control at 70 g/ha [1, 6]	pest or weed control at 140 g/ha [1, 6]	pest or weed control at 70 g/ha [1, 7]	pest or weed control at 140 g/ha [1, 7]	pest or weed control at 70 g/ha [1, 8]	pest or weed control at 140 g/ha [1, 8]	pest or weed control at 70 g/ha [1, 9]	pest or weed control at 140 g/ha [1, 9]	further results
COC(=O)c1nc(-c2cc(F)ccc2F)c(F)c(N)c1Cl [Compound 189]	0 to 29%	0 to 29%	0 to 29%	0 to 29%	0 to 29%	0 to 29%	0 to 29%	0 to 29%	0 to 29%	0 to 29%	0 to 29%	0 to 29%	0 to 29%	0 to 29%	pest or weed control at 70 g/ha ([2]; ABUTH: velvetleaf (Abutilon theophrasti), 70 g ai/ha, post-emergent, read-out: Visual Growth Reduction (%) 14 Days After Application ABUTH): 75 to 84%; pest or weed control at 140 g/ha ([2]; ABUTH: velvetleaf (Abutilon theophrasti), 140 g ai/ha, post-emergent, read-out: Visual Growth Reduction (%) 14 Days After Application ABUTH): 75 to 84%; pest or weed control at 70 g/ha ([2]; AMARE: redroot pigweed (Amaranthus retroflexus), 70 g ai/ha, post-emergent, read-out: Visual Growth Reduction (%) 14 Days After Application AMARE): 95 to 100%; pest or weed control at 140 g/ha ([2]; AMARE: redroot pigweed (Amaranthus retroflexus), 140 g ai/ha, post-emergent, read-out: Visual Growth Reduction (%) 14 Days After Application AMARE): 95 to 100%; pest or weed control at 70 g/ha ([2]; BRSNN: oilseed-rape, canola (Brassica napus), 70 g ai/ha, post-emergent, read-out: Visual Growth Reduction (%) 14 Days After Application BRSNN): 45 to 59%; pest or weed control at 140 g/ha ([2]; BRSNN: oilseed-rape, canola (Brassica napus), 140 g ai/ha, post-emergent, read-out: Visual Growth Reduction (%) 14 Days After Application BRSNN): 60 to 74%; pest or weed control at 70 g/ha ([2]; CHEAL: lambsquarters (Chenopodium album), 70 g ai/ha, post-emergent, read-out: Visual Growth Reduction (%) 14 Days After Application CHEAL): 85 to 94%; pest or weed control at 140 g/ha ([2]; CHEAL: lambsquarters (Chenopodium album), 140 g ai/ha, post-emergent, read-out: Visual Growth Reduction (%) 14 Days After Application CHEAL): 85 to 94%; pest or weed control at 70 g/ha ([2]; EPHHL: wild poinsettia (Euphorbia heterophylla), 70 g ai/ha, post-emergent, read-out: Visual Growth Reduction (%) 14 Days After Application EPHHL): 0 to 29%; pest or weed control at 140 g/ha ([2]; EPHHL: wild poinsettia (Euphorbia heterophylla), 140 g ai/ha, post-emergent, read-out: Visual Growth Reduction (%) 14 Days After Application EPHHL): 0 to 29%; pest or weed control at 70 g/ha ([2]; HELAN: sunflower (Helianthus annuus), 70 g ai/ha, post-emergent, read-out: Visual Growth Reduction (%) 14 Days After Application HELAN): 85 to 94%; pest or weed control at 140 g/ha ([2]; HELAN: sunflower (Helianthus annuus), 140 g ai/ha, post-emergent, read-out: Visual Growth Reduction (%) 14 Days After Application HELAN): 85 to 94%; pest or weed control at 140 g/ha ([2]; VIOTR: wild pansy (Viola tricolor), 140 g ai/ha, post-emergent, read-out: Visual Growth Reduction (%) 14 Days After Application VIOTR): 0 to 29%
COC(=O)c1nc(-c2cccc(F)c2)c(F)c(N)c1Cl [Compound 183]	0 to 29%	0 to 29%	0 to 29%	0 to 29%	0 to 29%	0 to 29%	0 to 29%	0 to 29%	0 to 29%	0 to 29%	30 to 44%	45 to 59%	0 to 29%	0 to 29%	pest or weed control at 70 g/ha ([2]; ABUTH: velvetleaf (Abutilon theophrasti), application rate 70 g ai/ha, read-out: Visual Growth Reduction (%) 14 Days After Application, ABUTH): 75 to 84%; pest or weed control at 140 g/ha ([2]; ABUTH: velvetleaf (Abutilon theophrasti), application rate 140 g ai/ha, read-out: Visual Growth Reduction (%) 14 Days After Application, ABUTH): 95 to 100%; pest or weed control at 70 g/ha ([2]; AMARE: redroot pigweed (Amaranthus retroflexus), application rate 70 g ai/ha, read-out: Visual Growth Reduction (%) 14 Days After Application, AMARE): 95 to 100%; pest or weed control at 140 g/ha ([2]; AMARE: redroot pigweed (Amaranthus retroflexus), application rate 140 g ai/ha, read-out: Visual Growth Reduction (%) 14 Days After Application, AMARE): 95 to 100%; pest or weed control at 70 g/ha ([2]; BRSNN: oilseed-rape, canola (Brassica napus), application rate 70 g ai/ha, read-out: Visual Growth Reduction (%) 14 Days After Application, BRSNN): 60 to 74%; pest or weed control at 140 g/ha ([2]; BRSNN: oilseed-rape, canola (Brassica napus), application rate 140 g ai/ha, read-out: Visual Growth Reduction (%) 14 Days After Application, BRSNN): 85 to 94%; pest or weed control at 70 g/ha ([2]; CHEAL: lambsquarters (Chenopodium album), application rate 70 g ai/ha, read-out: Visual Growth Reduction (%) 14 Days After Application, CHEAL): 95 to 100%; pest or weed control at 140 g/ha ([2]; CHEAL: lambsquarters (Chenopodium album), application rate 140 g ai/ha, read-out: Visual Growth Reduction (%) 14 Days After Application, CHEAL): 95 to 100%; pest or weed control at 70 g/ha ([2]; EPHHL: wild poinsettia (Euphorbia heterophylla), application rate 70 g ai/ha, read-out: Visual Growth Reduction (%) 14 Days After Application, EPHHL): 95 to 100%; pest or weed control at 140 g/ha ([2]; EPHHL: wild poinsettia (Euphorbia heterophylla), application rate 140 g ai/ha, read-out: Visual Growth Reduction (%) 14 Days After Application, EPHHL): 95 to 100%; pest or weed control at 70 g/ha ([2]; HELAN: sunflower (Helianthus annuus), application rate 70 g ai/ha, read-out: Visual Growth Reduction (%) 14 Days After Application, HELAN): 85 to 94%; pest or weed control at 140 g/ha ([2]; HELAN: sunflower (Helianthus annuus), application rate 140 g ai/ha, read-out: Visual Growth Reduction (%) 14 Days After Application, HELAN): 85 to 94%; pest or weed control at 70 g/ha ([2]; VIOTR: wild pansy (Viola tricolor), application rate 70 g ai/ha, read-out: Visual Growth Reduction (%) 14 Days After Application, VIOTR): 0 to 29%; pest or weed control at 140 g/ha ([2]; VIOTR: wild pansy (Viola tricolor), application rate 140 g ai/ha, read-out: Visual Growth Reduction (%) 14 Days After Application, VIOTR): 0 to 29%
